Assay results published in US5378813A, “Meso-2,5-dimercapto-N,N,N'N'-tetramethyladipamide” (President and Fellows of Harvard College, priority 1992, dated 1995).
≈ marks a conversion by molar mass, not a printed value. Read-outs that look alike come from different tables or passages of the source.

Experiments:
[1] = Equilibration of dl-DTA and meso-DTA (1H NMR); format: physicochemical; settings: 100 mM phosphate buffer, pD 7.0
Procedure: dl-DTA^OX (2 mg in 0.5 mL of buffered D2 O (100 mM NaPO4, pD 7.0)) and meso-DTA (6 mg in 1.5 mL of buffered D2 O (100 mM NaPO4, pD 7.0)) were mixed in an NMR tube, and ^1 H NMR spectra were taken at various times. The value of Keq was calculated from the ^1 H NMR integrals.

[2] = Reduction potential and equilibrium constant for reduction of ME^ox by the dithiol; format: physicochemical; settings: for K, equilibrium constant: reduction of ME^ox with the dithiol in water, pH 7.0, 100 mM phosphate buffer; for ε° (reduction potential): relative to mercaptoethanol (-0.209 V)
Procedure: We used the equilibrium constant between meso-DTA and DTT to determine the values of ε° and K(ME) of meso-DTA.
(§1) After 4 h, a ^1 H NMR spectrum was obtained.

[3] = Determination of pKa (absorbance at 238 nm against pH); format: physicochemical; settings: for pKa: aqueous buffers; for fraction existing as the thiolate: pH 7.0
Procedure: The absorbance at 238 nm of meso-DTA (100 μL of an 8 mM ethanolic solution of meso-DTA) in various aqueous buffers (3 mL, 50 mM: 2,2-dimethylsuccinate, pH 6.0, 6.4, 6.8; Tris, pH 7.0, 7.3, 7.7, 8.0, 8.3, 8.7; glycine, pH 9.0, 9.5, 10.0) was plotted against pH. This curve was then compared with plots derived from theory.

[4] = Kinetics of reduction of mercaptoethanol disulfide by 1H NMR spectroscopy; format: physicochemical; set-up: kapp^DTA / kapp, apparent rate constant: unit not given here; settings: for kapp, apparent rate constant: reduction of mercaptoethanol disulfide (ME^ox), pH 7.0, aqueous phosphate buffer (50 mM)
Procedure: (§2) The thiol-disulfide interchange reaction was quenched by addition of 25 μL of a DCl solution (12 wt % in D2 O) in one tube after 2 min, in another tube after 4 min, and in another tube after 6 min. The same series of experiments was carried out with the meso-DTA solution instead of the DTT solution. The second-order rate constant was calculated from the integrals of the ^1 H NMR spectra.

[5] = Solubility in phosphate buffer; format: physicochemical; settings: reduced (dithiol) form, phosphate buffer pH 7.0, 100 mM phosphate, 25° C
Procedure: ^e The solubilities were determined in phosphate buffer (pH 7.0, 100

DNase = biological target: T1, DNase (Bos taurus, UniProt P00639); experiment: Rate of reduction (deactivation) of DNase; format: biochemical; set-up: kapp^DTA: unit not given here
T1 construct: purchased Sigma
T1 sequence (P00639 23-282): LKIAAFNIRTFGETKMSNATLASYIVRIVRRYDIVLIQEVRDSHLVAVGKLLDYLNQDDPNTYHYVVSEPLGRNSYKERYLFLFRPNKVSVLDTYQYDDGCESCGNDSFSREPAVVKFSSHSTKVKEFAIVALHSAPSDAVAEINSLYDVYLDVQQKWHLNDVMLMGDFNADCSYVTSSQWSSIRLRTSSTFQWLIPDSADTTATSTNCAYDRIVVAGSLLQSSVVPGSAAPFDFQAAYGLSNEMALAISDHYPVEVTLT
Excerpt: (§3) In papain and creatine kinase, the disulfide being reduced is derived from an essential active site cysteine, (Smith et al., Biochemistry 1975, 14, 766-771) and the rate measured is the rate of reactivation of the modified protein. (Shaked et al., Biochemistry 1980, 19, 4156-4166.) DNase is deactivated by the reduction of an internal disulfide. (Shaked et al., Biochemistry 1980, 19, 4156-4166; and Price et al., J. Biol. Chem. 1969, 244, 929-932.)

[6] = reference value to which all ε° are relative; cited from earlier work
papain-S-S-Me = biological target: T2, papain-S-S-Me (Carica papaya, UniProt P00784); experiment: Kinetics of reactivation of papain-S-S-Me; format: biochemical; set-up: kapp^DTA: unit not given here
T2 construct: purchased Boehringer Mannheim
T2 sequence (P00784 134-345): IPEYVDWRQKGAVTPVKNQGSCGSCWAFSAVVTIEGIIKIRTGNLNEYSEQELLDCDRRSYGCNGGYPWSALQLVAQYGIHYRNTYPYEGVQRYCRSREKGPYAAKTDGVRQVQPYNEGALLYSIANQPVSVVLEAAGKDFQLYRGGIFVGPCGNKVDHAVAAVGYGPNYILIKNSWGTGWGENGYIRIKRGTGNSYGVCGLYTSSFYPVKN
Procedure: as §3
The papain-S-S-Me was prepared as described by Shaked et al., Biochemistry 1980, 19, 4156-4166. […] Chem. 1991, 56, 2332-2337.

[7] = Kinetics of reduction of glutathione disulfide by 1H NMR spectroscopy; format: physicochemical; set-up: kapp^DTA: unit not given here; settings: pH 7.0, 298 K
Procedure: as §2

[8] = biological target: T3, creatine kinase-S-S-glutathione (Oryctolagus cuniculus, UniProt P00563); experiment: Kinetics of reactivation of creatine kinase-S-S-glutathione; format: biochemical; set-up: kapp^DTA: unit not given here
T3 construct: purchased Sigma
T3 sequence (P00563 2-381 limits assumed): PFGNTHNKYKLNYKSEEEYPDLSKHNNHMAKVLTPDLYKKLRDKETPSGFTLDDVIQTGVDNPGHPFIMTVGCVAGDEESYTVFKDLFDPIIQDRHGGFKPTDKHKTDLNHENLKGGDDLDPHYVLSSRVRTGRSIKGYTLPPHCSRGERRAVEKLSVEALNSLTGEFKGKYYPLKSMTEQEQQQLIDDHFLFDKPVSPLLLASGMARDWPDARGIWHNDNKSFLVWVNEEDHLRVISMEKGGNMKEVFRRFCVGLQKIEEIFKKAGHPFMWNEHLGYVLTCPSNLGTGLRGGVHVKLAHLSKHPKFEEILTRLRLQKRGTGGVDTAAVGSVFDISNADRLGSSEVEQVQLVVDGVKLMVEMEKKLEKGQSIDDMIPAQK
Excerpt: as §3
The solution of creatine kinase S-S-glutathione (the procedure was analogous to that of Walters and Gilbert, J. Biol. Chem. 1986, 261, 15372-15377) (10 μL) was diluted with deoxygenated aqueous buffer (pH 7.0, 0.1M imidazole, 2 mM EDTA, 2.5 mL). The diluted solution was added to two flasks (1.0 mL each). […] At various times, a 50-μL aliquot was withdrawn and added to an assay solution (950 μL, pH 6.0, 0.1M imidazole, 2 mM EDTA, 10 mM MgCl2, 2 mM ADP, 20 mM d-glucose, 2 mM NADP, 30 mM phosphocreatine, hexokinase (50 units/mL), glucose-6-phosphate dehydrogenase (35 units/mL)). The rate of increase in absorbance at 340 nm was recorded. (Gerhardt, Methods of Enzymatic Analysis, 3rd ed.; Bergmeyer, Ed.; Verlag Chemie: Weinheim, 1983; Vol. III, pp. 508-524.)

[9] = Equilibrium experiment, meso-DTA with DTT^OX (1H NMR); format: physicochemical; settings: 50 mM phosphate buffer, pD 7.0
Procedure: as §1

[10] = Relative rate of reduction of disulfides, meso-DTA compared with DTT (summary and calculation); format: physicochemical; settings: pH 7.0
Excerpt: as §3
The difference between the calculated and the actual value for proteins could be due to steric interactions, because meso-DTA is a secondary thiol and DTT is a primary thiol. The difference in rates could also be due to the relative difference in hydrophobicities of the two compounds.

[11] = aqueous buffer, read-out: solubility
[12] = reduction of an internal disulfide, aqueous solution, pH 7.0, 298 K
[13] = DMH data from Singh and Whitesides 1991
[14] = rate of reactivation, aqueous solution, pH 7.0, 298 K

Compound: CN(C)C(=O)[C@H](S)CC[C@@H](S)C(=O)N(C)C (relative stereo) [dl-DTA]
- factor by which more reducing than meso-DTA [1]: 10
- K, equilibrium constant [2]: 10^4 M
- ε° (reduction potential) [2]: -0.328 V

Compound: CN(C(=O)CS)N(C)C(=O)CS [DMH, N,N'-dimethyl-N,N'-bis(mercaptoacetyl) hydrazine, reference compound]
- pKa ([3]; read-out: pKa (first thiol)): 7.6
- pKa ([3]; read-out: pKa (second thiol)): 8.9
- kapp, apparent rate constant [4]: 0.52
- solubility [5, 11]: 250 mM (≈ 52.1 mg/mL)
- K, equilibrium constant [2]: 10^3 M
- ε° (reduction potential) [2]: -0.300 V

Compound: O[C@H](CS)[C@H](O)CS (racemic) [DTT, dithiothreitol, reference compound]
- fraction existing as the thiolate [3]: about 1%
- kapp^DTT (DNase; [12]): 0.19 M^1 g^-1
- solubility [5]: high
- K, equilibrium constant [2]: 10^5 M
- ε° (reduction potential) [2]: -0.356 V

Compound: OCCS [ME, Mercaptoethanol]
- ε° of the reference mercaptoethanol [6]: -0.209 V

Compound: CN(C)C(=O)[C@H](S)CC[C@H](S)C(=O)N(C)C [meso-DTA, meso-2,5-Dimercapto-N,N,N',N'-tetramethyladipamide]
- kapp^DTA / kapp^DMH (papain-S-S-Me; [13]): 0.15
- kapp^DTA / kapp^DTT (papain-S-S-Me; pH 7.0, 298 K): 4.5
- kapp^DTA (papain-S-S-Me; [14]): 260
- Keq = [meso-DTA^OX][dl-DTA]/[meso-DTA][dl-DTA^OX] [1]: 0.10
- kapp^DTA / kapp^DTT ([7]; glutathione disulfide): 5.5
- kapp^DTA ([7]; reduction of glutathione disulfide, aqueous solution): 0.31
- pKa ([3]; read-out: pKa (first thiol)): 7.8 ± 0.2
- pKa ([3]; read-out: pKa (second thiol)): 8.9 ± 0.2
- fraction existing as the thiolate [3]: approximately 15%
- kapp^DTA / kapp^DMH [8, 13]: 0.5
- kapp^DTA / kapp^DTT ([8]; pH 7.0, 298 K): 3.4
- kapp^DTA [8, 14]: 78
- kapp^DTA / kapp^DTT ([4]; mercaptoethanol disulfide, pH 7.0, 298 K): 7.7
- kapp^DTA / kapp^DMH ([4]; mercaptoethanol disulfide, DMH data from Singh and Whitesides 1991): 1.1
- kapp, apparent rate constant [4]: 0.50
- kapp^DTA ([4]; reduction of mercaptoethanol disulfide, aqueous solution, pH 7.0, 298 K): 0.50
- kapp^DTA / kapp^DMH (DNase; [13]): 0.4
- kapp^DTA / kapp^DTT (DNase; pH 7.0, 298 K): 1.8
- kapp^DTA (DNase; [12]): 0.34
- Keq = [meso-DTA^OX][DTT]/[meso-DTA][DTT^OX] [9]: 0.010
- times faster reduction of disulfide bonds than DTT ([10]; aqueous solution): up to 8 times
- relative rate of reduction compared with DTT, disulfide bond in proteins ([10]; water): 2-5 times
- solubility [5, 11]: 80 mM (≈ 21.2 mg/mL)
- factor by which the equilibrium constant for reduction of ME^OX is less than that of DTT [2]: 10^2
- less reducing than DTT by [2]: approximately 56 mV
- K, equilibrium constant [2]: 10^3 M
- ε° (reduction potential) [2]: -0.300 V
